According to publication PMC4526345 (Biochemistry, 2015):

Assays:
HDAC8 [1] = biological target: T1, HDAC8 (Homo sapiens, UniProt Q9BY41); test: Deacetylation of N^8-acetylspermidine by HDAC8; assay type: biochemical; settings: overnight incubation with HDAC8; data not shown
T1 sequence (Q9BY41 1-377): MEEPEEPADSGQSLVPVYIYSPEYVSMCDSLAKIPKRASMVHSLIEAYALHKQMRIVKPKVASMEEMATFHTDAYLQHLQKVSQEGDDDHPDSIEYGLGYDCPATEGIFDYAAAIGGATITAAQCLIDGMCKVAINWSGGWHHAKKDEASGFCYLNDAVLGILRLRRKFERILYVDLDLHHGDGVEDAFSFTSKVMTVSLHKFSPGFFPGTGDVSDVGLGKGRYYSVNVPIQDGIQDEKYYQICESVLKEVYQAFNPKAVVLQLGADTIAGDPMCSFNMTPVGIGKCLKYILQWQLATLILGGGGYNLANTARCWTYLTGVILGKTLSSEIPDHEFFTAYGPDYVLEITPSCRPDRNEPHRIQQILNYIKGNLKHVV

HDAC8 [2] = settings: read-out: IC50 HDAC8; cited from earlier work
Mycoplana ramosa APAH = Mycoplana ramosa APAH (Mycoplana ramosa, UniProt Q48935); test: APAH inhibition, fluorimetric Fluor-de-Lys assay; assay type: biochemical; settings: also evaluated after 30 and 60 min incubation times
Sequence of Mycoplana ramosa APAH (Q48935 whole entry): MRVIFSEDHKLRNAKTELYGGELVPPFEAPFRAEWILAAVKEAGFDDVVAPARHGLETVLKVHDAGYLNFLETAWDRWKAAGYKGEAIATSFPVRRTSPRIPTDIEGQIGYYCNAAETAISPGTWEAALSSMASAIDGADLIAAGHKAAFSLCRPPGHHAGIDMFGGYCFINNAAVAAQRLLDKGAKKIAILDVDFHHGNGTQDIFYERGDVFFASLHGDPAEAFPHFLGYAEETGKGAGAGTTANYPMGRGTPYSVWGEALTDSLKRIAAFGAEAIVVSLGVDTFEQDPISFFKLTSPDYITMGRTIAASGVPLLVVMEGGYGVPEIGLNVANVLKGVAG

Compound: CC(=O)NCCCCNCCCN [N^8-acetylspermidine]
- spermidine product formed by HDAC8 (HDAC8 [1]): does not yield any measurable spermidine product

Compound: largazole thiol
- IC50 (HDAC8 [2]): 0.102 µM

Compound: Cl.NCCCCCCC(=O)NO [Compound 6, 7-Amino-N-hydroxyheptanamide hydrochloride salt]
- time-dependent inhibition of APAH (Mycoplana ramosa APAH): not observed
